Non-standard residues stand in square brackets, D forms with d. No end group written: not given here. *: point of attachment. FITC = O=C1OC2(c3ccc(O)cc3Oc3cc(O)ccc32)c2ccc(NC(=S)*)cc21; pY = N[C@@H](Cc1ccc(OP(=O)(O)O)cc1)C(=O)O
System: Tregs (CD4+CD25+FoxP3+)
Assay: Treg differentiation in total mouse T cells stimulated with anti-CD3
Assay type: cell-based
Conditions: anti-CD3, 5 to 24 hours; compared to vehicle alone or nonspecific peptide
Source text: To ensure that the peptide easily enters cells and that its cellular localization can be monitored, a C-terminal TAT peptide (GRKKRRQRRRPQ) (SEQ ID NO:3) and an N-terminal fluorescent FITC dye were incorporated, respectively, and named it SLP76pTYR peptide ([…]). SLP76pTYR peptide (FITC Dye ^132NEEEEAPVEDDADpYEPPPSNDEEA^155-TAT) (SEQ ID NO:5) and non-specific control peptide (FITC Dye-[…]-TAT) (SEQ ID NO:6) were synthesized by Genscript Inc (Piscataway, NJ). These peptides were initially dissolved in 3% ammonia water to a final concentration of 10 mg/mL and then further diluted into PBS to a final concentration of 0.1 mg/mL. Fresh splenocytes were isolated from WT mice, and T cells were generated from splenocytes as previously described (Baker et al., 2001). […] Cells were examined for the presence of FITC by microscopy using a Leica DMi8 microscope equipped with an infinity total internal reflection fluorescence (TIRF) and DIC modules, a Lumencor SOLA SE II light box, a 150 mW 488 (GFP) laser and filter cube, a 100x/1.47 NA objective, and an Andor iXon Life 897 EMCCD camera. […]

## FITC Dye ^132NEEEEAPVEDDADpYEPPPSNDEEA^155-TAT ({FITC}-NEEEEAPVEDDAD[pY]EPPPSNDEEAGRKKRRQRRRPQ) [SLP76pTYR]
  differentiation of Treg cells: Significantly enhanced differentiation of Treg cells

— patent publication US12729381B2, “Methods and compositions for inactivating interleukin-2-inducible t-cell kinase (ITK)” (priority 2020, dated 2026)
